In patent US20070128217A1 (priority 2003, published 2007):

Assays:
[1] = system: recombinant human anti-SARS-CoV antibody 03-018; format: binding; parameters: Binding of antibody 03-018 to linear peptides of the N protein of SARS-CoV Urbani / Binding of antibody 03-018 to looped/cyclic peptides of the N protein of SARS-CoV Urbani: unit not given here
[2] = system: antibodies in sera from SARS patients (sera 1a, 1b, 2, 6, 37, 62, London, SARS-yellow, SARS-green); format: binding, human; parameters: Binding of serum 6 to linear peptides of protein X1 of SARS-CoV Urbani / Binding of serum 37 to linear peptides of protein X1 of SARS-CoV Urbani / Binding of serum 6 to looped/cyclic peptide (PEPSCAN-ELISA) / Binding of serum 37 to looped/cyclic peptide (PEPSCAN-ELISA) / Binding of serum 37 to looped/cyclic peptides of protein X1 of SARS-CoV Urbani / Binding of serum 6 to linear peptides of protein X2 / Binding of serum 37 to linear peptides of protein X2 / Binding of serum 37 to looped/cyclic peptides of protein X2 of SARS-CoV Urbani / Binding of serum 6 to linear peptides of protein M of SARS-CoV Urbani / Binding of serum 37 to linear peptides of protein M of SARS-CoV Urbani / Binding of serum 6 to looped/cyclic peptides of protein M of SARS-CoV Urbani / Binding of serum 37 to looped/cyclic peptides of protein M of SARS-CoV Urbani / Binding of serum 6 to linear peptides of protein X3 of SARS-CoV Urbani / Binding of serum 37 to linear peptides of protein X3 of SARS-CoV Urbani / Binding of serum 37 to looped/cyclic peptides of protein X3 of SARS-CoV Urbani / Binding of serum 6 to linear peptides of protein X4 of SARS-CoV Urbani / Binding of serum 37 to linear peptides of protein X4 of SARS-CoV Urbani / Binding of serum 37 to looped/cyclic peptides of protein X4 of SARS-CoV Urbani / Binding of serum 6 to linear peptides of protein X5 of SARS-CoV Urbani / Binding of serum 37 to linear peptides of protein X5 of SARS-CoV Urbani / Binding of serum 37 to looped/cyclic peptides of protein X5 of SARS-CoV Urbani / Binding of serum 6 to linear peptides of protein N of SARS-CoV Urbani / Binding of serum 37 to linear peptides of protein N of SARS-CoV Urbani / Binding of serum 6 to linear peptide (PEPSCAN-ELISA) / Binding of serum 1a to looped/cyclic peptides of protein N of SARS-CoV Urbani / Binding of serum 1b to looped/cyclic peptides of protein N of SARS-CoV Urbani / Binding of serum 2 to looped/cyclic peptides of protein N of SARS-CoV Urbani / Binding of serum 6 to looped/cyclic peptides of protein N of SARS-CoV Urbani / Binding of serum 37 to looped/cyclic peptides of protein N of SARS-CoV Urbani / Binding of serum 62 to looped/cyclic peptides of protein N of SARS-CoV Urbani / Binding of serum London to looped/cyclic peptides of protein N of SARS-CoV Urbani / Binding of serum SARS-green to looped/cyclic peptides of protein N of SARS-CoV Urbani: unit not given here
[3] = system: control sera (pooled serum of ten healthy LUMC hospital workers; commercial negative donor pooled serum from the Dutch bloodbank); format: binding, human; parameters: Binding of Control serum LUMC to linear peptides / Binding of Control serum Blood-bank to linear peptides / Binding of Control serum LUMC to looped peptides / Binding of Control Serum Blood-Bank to Looped peptides / Binding of Control serum LUMC to linear peptides of the protein M of SARS-CoV Urbani / Binding of Control serum Blood-bank to linear peptides of the protein M of SARS-CoV Urbani / Binding of Control serum LUMC to looped peptides of the protein M of SARS-CoV Urbani / Binding of Control Serum Blood-Bank to Looped peptides of the protein M of SARS-CoV Urbani: unit not given here
[4] = system: rabbit serum obtained by immunizing a rabbit with the SARS-CoV strain Frankfurt 1; format: binding; parameters: Binding of a rabbit serum to linear peptides / Binding of a rabbit serum to looped peptides / Rabbit serum linear peptides / Rabbit serum looped peptides / Binding of a rabbit serum to linear peptides of protein N of SARS-CoV Urbani (Rabbit serum linear peptides) / Binding of a rabbit serum to looped/cyclic peptides of protein N of SARS-CoV Urbani (Rabbit serum looped peptides): unit not given here

Row | Sequence | Binding of antibody 03-018 to linear peptides of the N protein of SARS-CoV Urbani [1] | Binding of antibody 03-018 to looped/cyclic peptides of the N protein of SARS-CoV Urbani [1] | Binding of serum 1a to looped/cyclic peptides of protein N of SARS-CoV Urbani [2] | Binding of serum 1b to looped/cyclic peptides of protein N of SARS-CoV Urbani [2] | Binding of serum 2 to looped/cyclic peptides of protein N of SARS-CoV Urbani [2] | Binding of serum 6 to looped/cyclic peptides of protein N of SARS-CoV Urbani [2] | Binding of serum 37 to looped/cyclic peptides of protein N of SARS-CoV Urbani [2] | Binding of serum 62 to looped/cyclic peptides of protein N of SARS-CoV Urbani [2] | Binding of serum London to looped/cyclic peptides of protein N of SARS-CoV Urbani [2] | Binding of serum SARS-green to looped/cyclic peptides of protein N of SARS-CoV Urbani [2] | Binding of serum SARS-yellow to looped/cyclic peptides of protein N of SARS-CoV Urbani [2] | Binding of a rabbit serum to linear peptides of protein N of SARS-CoV Urbani (Rabbit serum linear peptides) [4] | Binding of a rabbit serum to looped/cyclic peptides of protein N of SARS-CoV Urbani (Rabbit serum looped peptides) [4] | Binding of serum 1a to linear peptide (PEPSCAN-ELISA) [2] | Binding of serum 1b to linear peptide (PEPSCAN-ELISA) [2] | Binding of serum 2 to linear peptide (PEPSCAN-ELISA) [2] | Binding of serum 6 to linear peptide (PEPSCAN-ELISA) [2] | Binding of serum 37 to linear peptide (PEPSCAN-ELISA) [2] | Binding of serum 62 to linear peptide (PEPSCAN-ELISA) [2] | Binding of serum London to linear peptide (PEPSCAN-ELISA) [2] | further results
1 | SASAFFGMSRIGMEV | 0.1 | 0.2 | 0.5 | 0.3 | 0.6 | 0.5 | 0.8 | 0.6 | 1.6 | 0.4 | 0.9 | 0.1 | 0.6 |  |  |  |  |  |  |  | Binding of serum 1a to linear peptides of protein N of SARS-CoV Urbani [2]: 0.3; Binding of serum 1b to linear peptides of protein N of SARS-CoV Urbani [2]: 0.2; Binding of serum 2 to linear peptides of protein N of SARS-CoV Urbani [2]: 0.2; Binding of serum 6 to linear peptides of protein N of SARS-CoV Urbani [2]: 0.2; Binding of serum 37 to linear peptides of protein N of SARS-CoV Urbani [2]: 0.7; Binding of serum 62 to linear peptides of protein N of SARS-CoV Urbani [2]: 0.6; Binding of serum London to linear peptides of protein N of SARS-CoV Urbani [2]: 0.5; Binding of serum SARS-green to linear peptides of protein N of SARS-CoV Urbani [2]: 0.4; Binding of serum SARS-yellow to linear peptides of protein N of SARS-CoV Urbani [2]: 0.7; Control Serum Blood-Bank Looped peptides [3]: 0.7; Control serum Blood-bank linear peptides [3]: 0.7; Control serum LUMC linear peptides [3]: 0.6; Control serum LUMC looped peptides [3]: 0.7
2 | SKKPRQKRTATKQYN | 0.1 | 0.2 | 0.3 | 0.1 | 0.4 | 0.3 | 0.6 | 0.6 | 0.5 | 0.1 | 0.3 | 0.2 | 0.1 | 0.2 | 0.1 | 0.3 | 0.2 | 0.6 | 0.7 | 0.5 | Binding of serum SARS-green to linear peptide (PEPSCAN-ELISA) [2]: 0.1; Binding of serum SARS-yellow to linear peptide (PEPSCAN-ELISA) [2]: 0.4; Binding of Control Serum Blood-Bank to Looped peptides [3]: 0.6; Binding of Control serum Blood-bank to linear peptides [3]: 0.8; Binding of Control serum LUMC to linear peptides [3]: 0.7; Binding of Control serum LUMC to looped peptides [3]: 0.5
3 | SQASSRSSSRSRGNS | 0.1 | 0.2 | 0.3 | 0.2 | 0.3 | 0.2 | 0.5 | 0.4 | 0.4 | 0.0 | 0.3 | 0.1 | 0.6 | 0.2 | 0.1 | 0.2 | 0.4 | 0.6 | 0.6 | 0.4 | Binding of serum SARS-green to linear peptide (PEPSCAN-ELISA) [2]: 0.2; Binding of serum SARS-yellow to linear peptide (PEPSCAN-ELISA) [2]: 0.6; Binding of Control Serum Blood-Bank to Looped peptides [3]: 0.6; Binding of Control serum Blood-bank to linear peptides [3]: 0.7; Binding of Control serum LUMC to linear peptides [3]: 0.7; Binding of Control serum LUMC to looped peptides [3]: 0.6
4 | SRGNSPARMASGGGE | 0.1 | 0.2 | 0.2 | 0.1 | 0.2 | 0.1 | 0.4 | 0.3 | 0.3 | 0.2 | 0.1 | 0.1 | 0.2 | 0.3 | 0.2 | 0.1 | 0.2 | 0.6 | 0.6 | 0.6 | Binding of serum SARS-green to linear peptide (PEPSCAN-ELISA) [2]: 0.2; Binding of serum SARS-yellow to linear peptide (PEPSCAN-ELISA) [2]: 0.6; Binding of Control Serum Blood-Bank to Looped peptides [3]: 0.5; Binding of Control serum Blood-bank to linear peptides [3]: 0.8; Binding of Control serum LUMC to linear peptides [3]: 0.8; Binding of Control serum LUMC to looped peptides [3]: 0.4
